Each structure is given as a SMILES string. Numbers after ± are expanded uncertainties.

A short description of data set [1]: molar enthalpy of vaporization or sublimation. Particulars: 298.15 K; Crystal; Static calorimetry.
For data set [2] the following is noted: 298.15 K, Static calorimetry; for molar enthalpy of sublimation: Crystal.

As for `Oc1cccc(F)c1F` [2,3-Difluorophenol], the molar enthalpy in data set [1] stood at 16.3 ± 0.717 kcal/mol.
For `Oc1ccc(F)cc1F` [2,4-Difluorophenol], the “molar enthalpy of vaporization” value in data set [2] (Liquid) turned out to be 14.1 ± 0.43 kcal/mol.
In the case of `Oc1cc(F)ccc1F` [2,5-Difluorophenol], the molar enthalpy in data set [1] is 16.3 ± 0.669 kcal/mol.
Same read-out and setting: the value for `Oc1c(F)cccc1F` [2,6-difluorophenol] was 18.6 ± 0.908 kcal/mol.
In the case of `Oc1ccc(F)c(F)c1` [3,4-Difluorophenol], in data set [2], the “molar enthalpy of sublimation” value is 17.4 ± 0.717 kcal/mol.
For `Oc1cc(F)cc(F)c1` [3,5-Difluorophenol], the “molar enthalpy of sublimation” value in data set [2] came to 17.4 ± 1.05 kcal/mol.

(Values after the NIST ThermoML archive (doi:10.1016/j.jct.2009.07.011).)
